Measured values: patent publication US20050101595A1, “N-containing cycloalkyl-substituted amino-thiazole derivatives and pharmaceutical compositions for inhibiting cell proliferation and methods for their use” (PFIZER INC., priority 2003, published 2005)

Columns and labels:
[1] = molecular target: human CDK4 and genetically truncated (1-264) cyclin D3 (Homo sapiens, UniProt P11802); test: Inhibition of CDK4/Cyclin D Retinoblastoma Kinase Activity; type: biochemical; details: 0.03 μM compound; Table 3
Sequence of human CDK4 and genetically truncated (1-264) cyclin D3 (P11802 whole entry, the tested form may be a part): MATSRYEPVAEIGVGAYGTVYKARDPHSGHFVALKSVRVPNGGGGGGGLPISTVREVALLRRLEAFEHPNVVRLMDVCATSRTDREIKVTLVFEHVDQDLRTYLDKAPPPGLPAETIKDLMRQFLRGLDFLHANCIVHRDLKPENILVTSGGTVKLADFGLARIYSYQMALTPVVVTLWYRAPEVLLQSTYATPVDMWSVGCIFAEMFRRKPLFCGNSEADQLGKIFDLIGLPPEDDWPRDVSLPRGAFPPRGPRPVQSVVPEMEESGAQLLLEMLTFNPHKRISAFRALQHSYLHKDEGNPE
Sequence of human CDK4 and genetically truncated (1-264) cyclin D3 (P30281 1-264 partner): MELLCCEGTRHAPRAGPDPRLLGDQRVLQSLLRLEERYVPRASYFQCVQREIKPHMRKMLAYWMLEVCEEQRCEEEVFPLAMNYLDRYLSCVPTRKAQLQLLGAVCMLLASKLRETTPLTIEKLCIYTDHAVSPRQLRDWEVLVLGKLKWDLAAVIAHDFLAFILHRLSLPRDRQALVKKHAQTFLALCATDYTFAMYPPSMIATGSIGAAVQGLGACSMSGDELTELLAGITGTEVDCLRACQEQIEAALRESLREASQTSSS
How it was run: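 Human CDK4/truncated cyclin D3 (1-264) complex from baculovirus-infected insect cells, 5 nM, phosphorylating Rb fragment (residues 386-928, His-tagged) with 25 μM [32/33P]ATP in HEPES pH 7.4, MgCl2, 2% DMSO at 30° C. for 20 min (60 min for tight binders). Filter-captured radioactivity by phosphorimager; apparent Ki from competitive or tight-binding fits.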

HCT-116 cell line = test: Inhibition of cell growth, tetrazolium salt (MTT) assay; type: cell-based; details: HCT-116, Table 3; for HCT-116 % Inhibition at 0.1 μM: 0.1 μM compound; for HCT-116 % Inhibition at 0.25 μM: 0.25 μM compound
How it was run: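 McCoy's 5A cultures; 4 h pre-incubation; compound dilutions in 0.5% v/v DMSO; 3–5 d, 37° C, 5% CO2; MTT 0.2 mg/mL final, 4 h; formazan dissolved in DMSO, A540; vs 0.5% DMSO vehicle.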

CDK2/Cyclin A = CDK2/Cyclin A (Homo sapiens, UniProt P24941); test: Inhibition of CDK2/Cyclin A Retinoblastoma Kinase Activity; type: biochemical; details: 0.03 μM compound; Table 3
How it was run: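 Baculovirus-expressed CDK2 complexed with proteolyzed cyclin A (10 or 19 nM), Rb fragment substrate, 25 μM [32P/33P]ATP, HEPES pH 7.4, 30 °C for 60 or 75 min under initial-rate conditions. Filter capture and phosphorimager readout; apparent Ki fitted to competitive or tight-binding competitive inhibition.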

Row | Compound | CDK4 % Inhibition at 0.03 μM [1] [%] | HCT-116 % Inhibition at 0.1 μM (HCT-116 cell line) [%] | HCT-116 % Inhibition at 0.25 μM (HCT-116 cell line) [%] | CDK2 % Inhibition at 0.03 μM (CDK2/Cyclin A) [%]
1 | COc1ccc(S(=O)(=O)N2CCC(Nc3nc(N)c(C(=O)c4c(F)cccc4F)s3)CC2)cc1OC [Example P38] | 74 | 15 | 35 | 73
2 | Nc1nc(NC2CCN(S(=O)(=O)c3cccc(Cl)c3Cl)CC2)sc1C(=O)c1c(F)cccc1F [Example P39] | 42 | 0 | 25 | 24
3 | Nc1nc(NC2CCN(S(=O)(=O)c3ccc(CNC(=O)c4ccccc4)s3)CC2)sc1C(=O)c1c(F)cccc1F [Example P40] | 64 | 7 | 33 | 61
4 | Nc1nc(NC2CCN(S(=O)(=O)c3cc(S(=O)(=O)c4ccccc4)cs3)CC2)sc1C(=O)c1c(F)cccc1F [Example P41] | 66 | 0 | 26 | 80
5 | Nc1nc(NC2CCN(S(=O)(=O)c3ccc(S(=O)(=O)c4ccccc4)s3)CC2)sc1C(=O)c1c(F)cccc1F [Example P42] | 62 | 3 | 19 | 55
6 | Nc1nc(NC2CCN(S(=O)(=O)c3ccc(S(=O)(=O)c4ccc(C(F)(F)F)cn4)s3)CC2)sc1C(=O)c1c(F)cccc1F [Example P43] | 57 | 0 | 17 | 70
7 | Cn1nc(-c2ccc(S(=O)(=O)N3CCC(Nc4nc(N)c(C(=O)c5c(F)cccc5F)s4)CC3)s2)cc1C(F)(F)F [Example P44] | 62 | 0 | 25 | 55
8 | Nc1nc(NC2CCN(S(=O)(=O)c3ccc(-c4ccccn4)s3)CC2)sc1C(=O)c1c(F)cccc1F [Example P45] | 82 | 14 | 27 | 65
9 | Nc1nc(NC2CCN(S(=O)(=O)c3cccc(Br)c3)CC2)sc1C(=O)c1c(F)cccc1F [Example P46] | 68 | 10 | 20 | 59
10 | N#Cc1ccc(S(=O)(=O)N2CCC(Nc3nc(N)c(C(=O)c4c(F)cccc4F)s3)CC2)cc1 [Example P47] | 82 | 0 | 26 | 81
11 | N#Cc1ccccc1S(=O)(=O)N1CCC(Nc2nc(N)c(C(=O)c3c(F)cccc3F)s2)CC1 [Example P48] | 67 | 24 | 31 | 59
12 | CCCCOc1ccc(S(=O)(=O)N2CCC(Nc3nc(N)c(C(=O)c4c(F)cccc4F)s3)CC2)cc1 [Example P49] | 54 | 10 | 32 | 36
13 | Cc1nn(C)c(Cl)c1S(=O)(=O)N1CCC(Nc2nc(N)c(C(=O)c3c(F)cccc3F)s2)CC1 [Example P50] | 35 | 14 | 25 | 30
14 | Cc1noc(C)c1S(=O)(=O)N1CCC(Nc2nc(N)c(C(=O)c3c(F)cccc3F)s2)CC1 [Example P51] | 27 | 18 | 21 | 3
15 | N#Cc1c(Cl)cccc1Oc1ccc(S(=O)(=O)N2CCC(Nc3nc(N)c(C(=O)c4c(F)cccc4F)s3)CC2)cc1 [Example P52] | 47 | 16 | 22 | 49
16 | CS(=O)(=O)CS(=O)(=O)N1CCC(Nc2nc(N)c(C(=O)c3c(F)cccc3F)s2)CC1 [Example P53] | 16 | 21 | 27 | −23
17 | Nc1nc(NC2CCN(S(=O)(=O)c3cc(OCC(F)(F)F)ccc3OCC(F)(F)F)CC2)sc1C(=O)c1c(F)cccc1F [Example P54] | 34 | 22 | 23 | 17
18 | Nc1nc(NC2CCN(S(=O)(=O)c3ccc(F)cc3Cl)CC2)sc1C(=O)c1c(F)cccc1F [Example P55] | 52 | 20 | 25 | 43
19 | COc1ccc(Cl)cc1S(=O)(=O)N1CCC(Nc2nc(N)c(C(=O)c3c(F)cccc3F)s2)CC1 [Example P56] | 26 | 20 | 34 | 21
20 | Nc1nc(NC2CCN(S(=O)(=O)c3c(Cl)cc(Cl)cc3Cl)CC2)sc1C(=O)c1c(F)cccc1F [Example P57] | 6 | 9 | 31 | 23
21 | Nc1nc(NC2CCN(S(=O)(=O)c3ccc(O)c(C(=O)O)c3)CC2)sc1C(=O)c1c(F)cccc1F [Example P58] | 15 | 14 | 30 | −16
22 | COc1ccc(C)cc1S(=O)(=O)N1CCC(Nc2nc(N)c(C(=O)c3c(F)cccc3F)s2)CC1 [Example P59] | 33 | 19 | 24 | 17
23 | Nc1nc(NC2CCN(S(=O)(=O)c3cccc4nsnc34)CC2)sc1C(=O)c1c(F)cccc1F [Example P62] | 70 | 22 | 26 | 74
24 | COC(=O)c1sccc1S(=O)(=O)N1CCC(Nc2nc(N)c(C(=O)c3c(F)cccc3F)s2)CC1 [Example P63] | 66 | 23 | 40 | 71
25 | Nc1nc(NC2CCN(S(=O)(=O)c3ccc(-c4ccon4)s3)CC2)sc1C(=O)c1c(F)cccc1F [Example P64] | 81 | 13 | 31 | 80
26 | Nc1nc(NC2CCN(S(=O)(=O)c3ccc(-c4ccccc4)cc3)CC2)sc1C(=O)c1c(F)cccc1F [Example P65] | 65 | 6 | 31 | 48
27 | Nc1nc(NC2CCN(S(=O)(=O)c3ccc(CNC(=O)c4ccc(Cl)cc4)s3)CC2)sc1C(=O)c1c(F)cccc1F [Example P66] | 57 | 12 | 34 | 55
28 | Nc1nc(NC2CCN(S(=O)(=O)c3c(F)cccc3F)CC2)sc1C(=O)c1c(F)cccc1F [Example P67] | 22 | 9 | 25 | −8
